According to paper PMC6001238, “Iterative Chemical Engineering of Vancomycin Leads to Novel Vancomycin Analogs With a High in Vitro Therapeutic Index” (Frontiers in Microbiology, 2018):
pIC50: −log10 of the molar value. Values after ≈ are worked out from the molar mass of the structure shown. Read-outs that look alike come from different tables or passages of the source.

Experiments:
E. faecalis VSE 1 = assay: MIC, broth microdilution, vancomycin-sensitive E. faecalis (VSE 1); type: cell-based, Enterococcus faecalis
Summary of the method: (§1)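 Broth microdilution per CLSI; controls = ultrapure water, non-inoculated broth. One set: + vancomycin 10 μM final alongside test analogue/control drug.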

E. faecalis VRE 6 = assay: MIC, broth microdilution, vancomycin-resistant E. faecalis VRE 6 (VanA); type: cell-based, Enterococcus faecalis
Summary of the method: as §1

E. faecalis VRE 53 = assay: MIC, broth microdilution, vancomycin-resistant E. faecalis VRE 53 (VanA); type: cell-based, Enterococcus faecalis
Summary of the method: as §1

E. faecalis VRE 29 = assay: MIC, broth microdilution, vancomycin-resistant E. faecalis VRE 29 (VanA); type: cell-based, Enterococcus faecalis
Summary of the method: as §1

E. faecalis VRE 37 = assay: MIC, broth microdilution, vancomycin-resistant E. faecalis VRE 37 (VanA); type: cell-based, Enterococcus faecalis
Summary of the method: as §1

[1] = system: Murine leukemia (L1210) cells; assay: Cytostatic activity, L1210 cell proliferation; type: cell-based; settings: Mus musculus, L1210, 48 h, read-out: Toxicity (IC50) L1210
Summary of the method: (§2)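 Readout: Coulter cell number after drug exposure at 37°C. Durations differ by line (L1210 2 days; CEM 3 days; HeLa 4 days). Stock suspension 300,000–500,000 cells/mL, diluted by mixing with compound. Endpoint: IC50 vs negative control.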

[2] = system: human T-lymphocyte (CEM) cells; assay: Cytostatic activity, CEM cell proliferation; type: cell-based; settings: Homo sapiens, CCRF-CEM, 72 h, read-out: Toxicity (IC50) CEM
Summary of the method: as §2

[3] = system: human cervix carcinoma (HeLa) cells; assay: Cytostatic activity, HeLa cell proliferation; type: cell-based; settings: Homo sapiens, HeLa, 96 h, read-out: Toxicity (IC50) HeLa
Summary of the method: as §2

[4] = system: L1210, CEM and HeLa cell lines; assay: Cytostatic activity, average or summary over L1210, CEM and HeLa; type: cell-based
Summary of the method: as §2

[5] = system: S. aureus VSSA (ATCC 6538); assay: MIC, broth microdilution, vancomycin-sensitive S. aureus (VSSA/MSSA, ATCC 6538); type: cell-based, Staphylococcus aureus
Summary of the method: as §1

S. aureus VISA/HIP5827 = assay: MIC, broth microdilution, vancomycin-intermediate S. aureus VISA HIP5827; type: cell-based, Staphylococcus aureus
Summary of the method: as §1

S. aureus VRSA = assay: MIC, broth microdilution, vancomycin-resistant S. aureus (VRSA); type: cell-based, Staphylococcus aureus
Summary of the method: as §1

MRSA KS2 = assay: MIC, broth microdilution, MRSA KS2; type: cell-based, Staphylococcus aureus
Summary of the method: as §1

MRSA KS6 = assay: MIC, broth microdilution, MRSA KS6; type: cell-based, Staphylococcus aureus
Summary of the method: as §1

MRSA KS89 = assay: MIC, broth microdilution, MRSA KS89; type: cell-based, Staphylococcus aureus
Summary of the method: as §1

MRSA KS1 = assay: MIC, broth microdilution, MRSA KS1; type: cell-based, Staphylococcus aureus
Summary of the method: as §1

33 clinical VRE isolates = assay: MIC against a set of 33 clinical VRE isolates (range, MIC50, TI); type: cell-based, Enterococcus faecalis; settings: VRE; for TI (IC50/MIC50): in vitro therapeutic index
Summary of the method: as §1

[6] = system: 24 clinical MRSA isolates; assay: MIC against a set of 24 clinical MRSA isolates (range, MIC50, TI); type: cell-based, Staphylococcus aureus
Summary of the method: as §1

[7] = system: Clostridium difficile ATJ ribotype 014/20; assay: MIC, plate drop assay, C. difficile ATJ ribotype 014/20; type: cell-based
Summary of the method: (§3)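 Twofold dilution series of test compounds were spotted onto C. difficile lawns in 0.4% BHI agar containing added calcium and magnesium salts. After overnight anaerobic incubation at 37°C, growth inhibition was scored by spot clearing; triplicate runs, ultrapure water negative control.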

[8] = system: Clostridium difficile AIU ribotype 027; assay: MIC, plate drop assay, C. difficile AIU ribotype 027; type: cell-based
Summary of the method: as §3

VE 148 (VanB) = assay: MIC, VanB-type VRE strain VE 148; type: cell-based, Enterococcus; settings: Enterococcus
Summary of the method: as §1

VE 149 (VanB) = assay: MIC, VanB-type VRE strain VE 149; type: cell-based, Enterococcus; settings: Enterococcus
Summary of the method: as §1

VE 150 (VanB) = assay: MIC, VanB-type VRE strain VE 150; type: cell-based, Enterococcus; settings: Enterococcus
Summary of the method: as §1

VE 152 (VanB) = assay: MIC, VanB-type VRE strain VE 152; type: cell-based, Enterococcus; settings: Enterococcus
Summary of the method: as §1

VE 157 (VanB) = assay: MIC, VanB-type VRE strain VE 157; type: cell-based, Enterococcus; settings: Enterococcus
Summary of the method: as §1

VE 82 (VanC1) = assay: MIC, VanC1-type VRE strain VE 82; type: cell-based, Enterococcus gallinarum; settings: Enterococcus gallinarum
Summary of the method: as §1

MRSA = assay: Minimum bactericidal concentration against MRSA; type: cell-based, Staphylococcus aureus
Method: Plates were incubated overnight at 37°C and colony growth was inspected.

CN[C@H](CC(C)C)C(=O)N[C@H]1C(=O)N[C@@H](CC(N)=O)C(=O)N[C@H]2C(=O)N[C@H]3C(=O)N[C@H](C(=O)N[C@H](C(=O)O)c4cc(O)cc(O)c4-c4cc3ccc4O)[C@H](O)c3ccc(c(Cl)c3)Oc3cc2cc(c3O[C@@H]2O[C@H](CO)[C@@H](O)[C@H](O)[C@H]2O[C@H]2C[C@](C)(N)[C@H](O)[C@H](C)O2)Oc2ccc(cc2Cl)[C@H]1O [Vancomycin]
MICvanc/MICi (E. faecalis VSE 1; E. faecalis VSE 1, ratio of MIC of vancomycin and MIC of analogue): 1
MIC (E. faecalis VSE 1; Enterococcus faecalis VSE 1 (vancomycin-sensitive), read-out: MIC): 1.56 µM (≈ 2.26 µg/mL)
MIC (E. faecalis VSE 1; Enterococcus faecalis, VSE1): 1.56 µM (≈ 2.26 µg/mL)
MIC-fold improvement vs. vancomycin (E. faecalis VSE 1; VSE 1, ratio of MIC of vancomycin and MIC of analogue): 1
MICvanc/MICi (E. faecalis VRE 6; E. faecalis VRE 6, ratio of MIC of vancomycin and MIC of analogue): 1
MIC (E. faecalis VRE 6; Enterococcus faecalis VRE 6 (vancomycin-resistant), read-out: MIC): 200 µM (≈ 290 µg/mL)
MIC (E. faecalis VRE 6; Enterococcus faecalis, VRE): 200 µM (≈ 290 µg/mL)
MIC-fold improvement vs. vancomycin (E. faecalis VRE 6; VRE 6, ratio of MIC of vancomycin and MIC of analogue): 1
MICvanc/MICi (E. faecalis VRE 53; E. faecalis VRE 53, ratio of MIC of vancomycin and MIC of analogue): 1
MIC (E. faecalis VRE 53; Enterococcus faecalis VRE 53 (vancomycin-resistant), read-out: MIC): 400 µM (≈ 580 µg/mL)
MIC (E. faecalis VRE 53; Enterococcus faecalis, VRE): 400 µM (≈ 580 µg/mL)
MIC-fold improvement vs. vancomycin (E. faecalis VRE 53; VRE 53, ratio of MIC of vancomycin and MIC of analogue): 1
MIC (E. faecalis VRE 29; Enterococcus faecalis, VRE): 400 µM (≈ 580 µg/mL)
MIC-fold improvement vs. vancomycin (E. faecalis VRE 29; VRE 29, ratio of MIC of vancomycin and MIC of analogue): 1
MIC (E. faecalis VRE 37; Enterococcus faecalis, VRE): 400 µM (≈ 580 µg/mL)
MIC-fold improvement vs. vancomycin (E. faecalis VRE 37; VRE 37, ratio of MIC of vancomycin and MIC of analogue): 1
pIC50 [1]: < 3.60
pIC50 [2]: < 3.60
pIC50 [3]: < 3.60
pIC50 [4]: 3.60
pIC50 ([4]; read-out: IC50 (L1210, CEM, HeLa), depending on the cell line used): < 3.60
pIC50 ([4]; read-out: Toxicity (IC50) Average): < 3.60
MIC ([5]; Staphylococcus aureus, ATCC6538): 0.78 µM (≈ 1.13 µg/mL)
MIC-fold improvement vs. vancomycin ([5]; VSSA, ratio of MIC of vancomycin and MIC of analogue): 1
MIC (S. aureus VISA/HIP5827; Staphylococcus aureus, VISA): 6.25 µM (≈ 9.06 µg/mL)
MIC-fold improvement vs. vancomycin (S. aureus VISA/HIP5827; VISA/HIP5827, ratio of MIC of vancomycin and MIC of analogue): 1
MIC (S. aureus VRSA; Staphylococcus aureus VRSA): 100 µM (≈ 145 µg/mL)
MIC-fold improvement vs. vancomycin (S. aureus VRSA; VRSA, ratio of MIC of vancomycin and MIC of analogue): 1
MIC-fold improvement vs. vancomycin (MRSA KS2; MRSA KS2, ratio of MIC of vancomycin and MIC of analogue): 1
MIC (MRSA KS2; Staphylococcus aureus, MRSA): 0.78 µM (≈ 1.13 µg/mL)
MIC-fold improvement vs. vancomycin (MRSA KS6; MRSA KS6, ratio of MIC of vancomycin and MIC of analogue): 1
MIC (MRSA KS6; Staphylococcus aureus, MRSA): 0.78 µM (≈ 1.13 µg/mL)
MIC-fold improvement vs. vancomycin (MRSA KS89; MRSA KS8 (head; KS89 in title), ratio of MIC of vancomycin and MIC of analogue): 1
MIC (MRSA KS89; Staphylococcus aureus, MRSA): 0.78 µM (≈ 1.13 µg/mL)
MIC-fold improvement vs. vancomycin (MRSA KS1; MRSA KS1, ratio of MIC of vancomycin and MIC of analogue): 1
MIC (MRSA KS1; Staphylococcus aureus, MRSA): 0.78 µM (≈ 1.13 µg/mL)
MIC50 (33 clinical VRE isolates; Enterococcus): 800 µM (≈ 1160 µg/mL)
TI (IC50/MIC50) (33 clinical VRE isolates): 0.3
TI (IC50/MIC50) (33 clinical VRE isolates; listed as vancomycin): < 1
MIC Range ([6]; 24 clinical MRSA isolates): 0.78 to 6.25 µM
MIC50 ([6]; Staphylococcus aureus, MRSA): 1.56 µM (≈ 2.26 µg/mL)
TI (IC50/MIC50) ([6]; in vitro therapeutic index, MRSA): 160
MIC-fold improvement vs. vancomycin ([7]; C. difficile ATJ ribotype 014/20): 1
MIC ([7]; Clostridioides difficile, C. difficile ATJ ribotype 014/20, plate drop assay): 35 µM (≈ 50.7 µg/mL)
MIC-fold improvement vs. vancomycin ([8]; C. difficile AIU ribotype 027): 1
MIC ([8]; Clostridioides difficile, C. difficile AIU ribotype 027, plate drop assay): 45 µM (≈ 65.2 µg/mL)
MIC (VE 148 (VanB)): 100 µM (≈ 145 µg/mL)
MIC (VE 149 (VanB)): 50 µM (≈ 72.5 µg/mL)
MIC (VE 150 (VanB)): 100 µM (≈ 145 µg/mL)
MIC (VE 152 (VanB)): 50 µM (≈ 72.5 µg/mL)
MIC (VE 157 (VanB)): 100 µM (≈ 145 µg/mL)
MIC (VE 82 (VanC1)): 3.13 µM (≈ 4.54 µg/mL)
MBC relative to MIC (MRSA): MBC equaling their MIC values
